Experiment [1] deals with Puccinia recondita tritici = Puccinia triticina. Put plainly: Fungicidal activity vs. leaf rust on wheat plants. The experiment is classed as in vivo. The settings on record: 50 ppm spray on wheat (Yuma), inoculated the following day, evaluated 7-9 days later; read-out: Puccinia Rating (% Disease Control @ 50 ppm). An excerpt: D. Evaluation of Fungicidal Activity Vs. Leaf Rust (Causal Agent Puccinia recondita Tritici=Puccinia triticina; Bayer code PUCCRT). […] Each pot contained 3-8 seedlings. These plants were sprayed until wet with the formulated test compounds. The compounds were formulated at 50 ppm in 10 vol. % acetone plus 90 vol. % Triton X water (deionized water 99.99 wt %+0.01 wt % Triton X100), giving a “formulated test compound.” Formulated test compounds were applied to plants using a turn table sprayer fitted with two opposing air atomization nozzles which delivered approximately 1500 L/ha of spray volume. On the following day, the leaves were inoculated with an aqueous spore suspension of Puccinia recondita tritici and the plants were kept in high humidity overnight to permit spores to germinate and infect the leaf. The plants were then transferred to a greenhouse until disease developed on untreated control plants. Disease severity was evaluated 7-9 days later, depending on the speed of disease development. In each case of Table 3, the Puccinia rating scale is as follows: […]

Experiment [2] has as its system Septoria tritici (ATCC 26517). Put plainly: Minimum Inhibitory Concentration (MIC) vs. Septoria tritici. The class given is cell-based. The note with it: Zymoseptoria tritici, ATCC26517, 168 h; 50% reduction in growth of S. tritici; 22° C., seven days; read-out: Septoria Rating (MIC). The procedure:
C. Minimum Inhibitory Concentration (MIC) vs. Septoria tritici Compounds were assessed for their ability to inhibit the growth of a common strain of the fungal plant pathogen Septoria tritici (ATCC 26517) using a procedure based on a Clinical and Laboratory Standards Institute (CLSI) microdilution assay protocol for filamentous fungi. Stock solutions of the test compounds and standards were prepared in DMSO at 6400 μg/mL. Each stock solution was used to prepare a 2-fold dilution series ranging from 16 to 0.016 μg/mL (total of 11 compound concentrations) in RPMI-1640 (Roswell Park Memorial Institute) medium containing 3-(N-morpholino)propanesulfonic acid (MOPS) buffer and 2% DMSO. A 100 μL aliquot of the dilutions was added to columns 1 (16 μg/mL compound) through 11 (0.016 μg/mL compound) of a 96-well microtiter plate. This format was replicated in a second row of the microtiter plate. Thus, each microtiter plate could include 11 concentrations of four test or control compounds replicated twice. A 100 μL aliquot of RPMI-1640/MOPS/2% DMSO medium was added to column 12 (no compound control) of the microtiter plate. A fresh culture of S. tritici was used to prepare a solution of approximately 5×10^4 colony-forming units per milliliter (cfu/mL) in RPMI/MOPS medium without DMSO. A 100 μL aliquot of this solution was added to all 96 wells in the microtiter plate. […] The assay plates were incubated at 22° C. for seven days in the dark without shaking. […] In each case of Table 3, the Septoria rating scale is as follows: […]

≈ marks a conversion by molar mass, not a printed value.

The term MIC denotes the lowest concentration found to suppress growth. Regarding `OC(Cn1cnnn1)(c1ccc(F)cc1F)C(F)(F)c1ccc(Oc2ccc(F)cc2)cn1` (stereo not drawn) [Compound 6, 2-(2,4-Difluorophenyl)-1,1-difluoro-1-(5-(4-fluorophenoxy)pyridin-2-yl)-3-(1H-tetrazol-1-yl)propan-2-ol], the pest or weed control at 50 ppm in experiment [1] was 80 to 100%. The MIC in experiment [2] was no more than 0.5 µg/mL.

Consider `OC(Cn1cnnn1)(c1ccc(F)cc1F)C(F)(F)c1ccc(Oc2ncc(C(F)(F)F)cc2Cl)cn1` (stereo not drawn) [Compound 92, 1-(5-((3-chloro-5-(trifluoromethyl)pyridin-2-yl)oxy)pyridin-2-yl)-2-(2,4-difluorophenyl)-1,1-difluoro-3-(1H-tetrazol-1-yl)propan-2-ol], for which the pest or weed control at 50 ppm in experiment [1] lay within 80 to 100%. The MIC in experiment [2] is no more than 0.5 µg/mL.

For the compound `OC(Cn1cnnn1)(c1ccc(F)cc1F)C(F)(F)c1ccc(OCc2ccc(F)cc2F)cn1` (stereo not drawn) [Compound 2, 1-(5-(2,4-Difluorobenzyloxy)pyridin-2-yl)-2-(2,4-difluorophenyl)-1,1-difluoro-3-(1H-tetrazol-1-yl)propan-2-ol], in experiment [1], the pest or weed control at 50 ppm lay in the range of 80 to 100%. In experiment [2], the MIC is no more than 0.5 µg/mL.

Turning to `OC(Cn1cnnn1)(c1ccc(Cl)cc1F)C(F)(F)c1ccc(OCC(F)(F)F)cn1` (stereo not drawn) [Compound 71, 2-(4-Chloro-2-fluorophenyl)-1,1-difluoro-3-(1H-tetrazol-1-yl)-1-(5-(2,2,2-trifluoroethoxy)pyridin-2-yl)propan-2-ol], in experiment [1], the pest or weed control at 50 ppm fell in the range of 80 to 100%. In experiment [2], the minimum inhibitory concentration (MIC) is no more than 0.5 µg/mL.

As for `OC(Cn1cnnn1)(c1ccc(F)cc1F)C(F)(F)c1ccc(Oc2ccc(Br)cn2)cn1` (stereo not drawn) [Compound 106, 1-(5-((5-bromopyridin-2-yl)oxy)pyridin-2-yl)-2-(2,4-difluorophenyl)-1,1-difluoro-3-(1H-tetrazol-1-yl)propan-2-ol], the pest or weed control at 50 ppm in experiment [1] fell in the range of 80 to 100%. Moreover, the MIC in experiment [2] is no more than 0.5 µg/mL.

Regarding `O=Cc1ccc(Oc2ccc(C(F)(F)C(O)(Cn3cnnn3)c3ccc(F)cc3F)nc2)nc1` (stereo not drawn) [Compound 101, 6-((6-(2-(2,4-difluorophenyl)-1,1-difluoro-2-hydroxy-3-(1H-tetrazol-1-yl)propyl)pyridin-3-yl)oxy)nicotinaldehyde], in experiment [1], the pest or weed control at 50 ppm was less than 40%. Also, in experiment [2], the MIC was greater than 4 µg/mL.

Consider `OC(Cn1cnnn1)(c1ccc(F)cc1F)C(F)(F)c1ccc(Oc2ccccc2F)cn1` (stereo not drawn) [Compound 88, 2-(2,4-Difluorophenyl)-1,1-difluoro-1-(5-(2-fluorophenoxy)pyridin-2-yl)-3-(1H-tetrazol-1-yl)propan-2-ol], for which the pest or weed control at 50 ppm in experiment [1] was in the range of 80 to 100%. The MIC in experiment [2] is no more than 0.5 µg/mL.

Regarding `OC(Cn1cnnn1)(c1ccc(F)cc1F)C(F)(F)c1ccc(OCC(F)(F)F)cn1` (stereo not drawn) [Compound 12, 2-(2,4-Difluorophenyl)-1,1-difluoro-3-(1H-tetrazol-1-yl)-1-(5-(2,2,2-trifluoroethoxy)pyridin-2-yl)propan-2-ol], the pest or weed control at 50 ppm in experiment [1] lay within 80 to 100%. Moreover, in experiment [2], the MIC is no more than 0.5 µg/mL.

With `OC(Cn1cnnn1)(c1ccc(F)cc1F)C(F)(F)c1ccc(OCc2ccncc2)cn1` (stereo not drawn) [Compound 118, 2-(2,4-difluorophenyl)-1,1-difluoro-1-(5-(pyridin-4-ylmethoxy)pyridin-2-yl)-3-(1H-tetrazol-1-yl)propan-2-ol], the pest or weed control at 50 ppm in experiment [1] was less than 40%. For the same compound, the MIC in experiment [2] is no more than 0.5 µg/mL.

Regarding `N#Cc1cccc(COc2ccc(C(F)(F)C(O)(Cn3cnnn3)c3ccc(F)cc3F)nc2)c1F` (stereo not drawn) [Compound 67, 3-(((6-(2-(2,4-Difluorophenyl)-1,1-difluoro-2-hydroxy-3-(1H-tetrazol-1-yl)propyl)pyridin-3-yl)oxy)methyl)-2-fluorobenzonitrile], the pest or weed control at 50 ppm in experiment [1] lay in the range of 80 to 100%. Further, in experiment [2], the minimum inhibitory concentration (MIC) was no more than 0.5 µg/mL.

As to `OC(Cn1cnnn1)(c1ccc(F)cc1F)C(F)(F)c1ccc(OCc2ccc(F)c(F)c2)cn1` (stereo not drawn) [Compound 28, 1-(5-((3,4-Difluorobenzyl)oxy)pyridin-2-yl)-2-(2,4-difluorophenyl)-1,1-difluoro-3-(1H-tetrazol-1-yl)propan-2-ol], in experiment [1], the pest or weed control at 50 ppm is 80 to 100%. Besides, in experiment [2], the MIC is no more than 0.5 µg/mL.

As for `OC(Cn1cnnn1)(c1ccc(F)cc1F)C(F)(F)c1ccc(OCc2ccnc(Cl)c2)cn1` (stereo not drawn) [Compound 117, 1-(5-((2-chloropyridin-4-yl)methoxy)pyridin-2-yl)-2-(2,4-difluorophenyl)-1,1-difluoro-3-(1H-tetrazol-1-yl)propan-2-ol], the pest or weed control at 50 ppm in experiment [1] was in the range of 80 to 100%. Further, the MIC in experiment [2] was no more than 0.5 µg/mL.

For the compound `OC(Cn1cnnn1)(c1ccc(F)cc1F)C(F)(F)c1ccc(Oc2ncc(Br)cn2)cn1` (stereo not drawn) [Compound 99, 1-(5-((5-bromopyrimidin-2-yl)oxy)pyridin-2-yl)-2-(2,4-difluorophenyl)-1,1-difluoro-3-(1H-tetrazol-1-yl)propan-2-ol], in experiment [1], the pest or weed control at 50 ppm fell in the range of 80 to 100%. For the same compound, the MIC in experiment [2] was no more than 0.5 µg/mL.

In the case of `OC(Cn1cnnn1)(c1ccc(Cl)cc1F)C(F)(F)c1ccc(OCC2CC2)cn1` (stereo not drawn) [Compound 54, 2-(4-Chloro-2-fluorophenyl)-1-(5-(cyclopropylmethoxy)pyridin-2-yl)-1,1-difluoro-3-(1H-tetrazol-1-yl)propan-2-ol], in experiment [1], the pest or weed control at 50 ppm lay in the range of 80 to 100%. Further, the MIC in experiment [2] was no more than 0.5 µg/mL.

Regarding `N#Cc1ccc(Oc2ccc(C(F)(F)C(O)(Cn3cnnn3)c3ccc(Cl)cc3F)nc2)cc1F` (stereo not drawn) [Compound 81, 4-((6-(2-(4-Chloro-2-fluorophenyl)-1,1-difluoro-2-hydroxy-3-(1H-tetrazol-1-yl)propyl)pyridin-3-yl)oxy)-2-fluorobenzonitrile], the pest or weed control at 50 ppm in experiment [1] fell in the range of 80 to 100%. Further, the MIC in experiment [2] is no more than 0.5 µg/mL.

On to `N#Cc1cccc(COc2ccc(C(F)(F)C(O)(Cn3ncnn3)c3ccc(F)cc3F)nc2)c1` (stereo not drawn) [Compound 53, 3-(((6-(2-(2,4-Difluorophenyl)-1,1-difluoro-2-hydroxy-3-(2H-tetrazol-2-yl)propyl)pyridin-3-yl)oxy)methyl)benzonitrile], for which, in experiment [2], the MIC was greater than 4 µg/mL.

For the compound `OC(Cn1ccnn1)(c1ccc(F)cc1F)C(F)(F)c1ccc(OCc2cccc(F)c2F)cn1` (stereo not drawn) [Compound 44, 1-(5-((2,3-Difluorobenzyl)oxy)pyridin-2-yl)-2-(2,4-difluorophenyl)-1,1-difluoro-3-(1H-1,2,3-triazol-1-yl)propan-2-ol], the MIC in experiment [2] lay within 1.5 to 4 µg/mL (≈ 3.03 to 8.09 µM).

Regarding `CC#CCOc1ccc(C(F)(F)C(O)(Cn2ncnn2)c2ccc(F)cc2F)nc1` (stereo not drawn) [Compound 33, 1-(5-(But-2-yn-1-yloxy)pyridin-2-yl)-2-(2,4-difluorophenyl)-1,1-difluoro-3-(2H-tetrazol-2-yl)propan-2-ol], the MIC in experiment [2] was greater than 4 µg/mL.

In the case of `OC(Cn1cnnn1)(c1ccc(F)cc1F)C(F)(F)c1ccc(OCc2ccc(OCC(F)(F)F)cc2)cn1` (stereo not drawn) [Compound 20, 2-(2,4-Difluorophenyl)-1,1-difluoro-3-(1H-tetrazol-1-yl)-1-(5-((4-(2,2,2-trifluoroethoxy)benzyl)oxy)pyridin-2-yl)propan-2-ol], the minimal inhibitory concentration (MIC) in experiment [2] was no more than 0.5 µg/mL.

Regarding `N#Cc1ccc(Oc2ccc(C(F)(F)C(O)(Cn3ncnn3)c3ccc(F)cc3F)nc2)c(F)c1` (stereo not drawn) [Compound 90, 4-((6-(2-(2,4-Difluorophenyl)-1,1-difluoro-2-hydroxy-3-(2H-tetrazol-2-yl)propyl)pyridin-3-yl)oxy)-3-fluorobenzonitrile], in experiment [2], the MIC lay within 1.5 to 4 µg/mL (≈ 3.07 to 8.19 µM).

As to `OC(Cn1ncnn1)(c1ccc(F)cc1F)C(F)(F)c1ccc(OCc2ccccc2)cn1` (stereo not drawn) [Compound 31, 1-(5-(Benzyloxy)pyridin-2-yl)-2-(2,4-difluorophenyl)-1,1-difluoro-3-(2H-tetrazol-2-yl)propan-2-ol], the minimum inhibitory concentration (MIC) in experiment [2] was greater than 4 µg/mL.

On to `CC#CCOc1ccc(C(F)(F)C(O)(Cn2ncnn2)c2ccc(Cl)cc2F)nc1` (stereo not drawn) [Compound 64, 1-(5-(But-2-yn-1-yloxy)pyridin-2-yl)-2-(4-chloro-2-fluorophenyl)-1,1-difluoro-3-(2H-tetrazol-2-yl)propan-2-ol], for which the MIC in experiment [2] was greater than 4 µg/mL.

Consider `OC(Cn1cnnn1)(c1ccc(F)cc1F)C(F)(F)c1ccc(SCC(F)(F)F)cn1` (stereo not drawn) [Compound 18, 2-(2,4-Difluorophenyl)-1,1-difluoro-3-(1H-tetrazol-1-yl)-1-(5-((2,2,2-trifluoroethyl)thio)pyridin-2-yl)propan-2-ol], for which the MIC in experiment [2] was in the range of 1.5 to 4 µg/mL (≈ 3.21 to 8.56 µM).

With `N#Cc1ccc(COc2ccc(C(F)(F)C(O)(Cn3ncnn3)c3ccc(F)cc3F)nc2)nc1` (stereo not drawn) [Compound 51, 6-(((6-(2-(2,4-Difluorophenyl)-1,1-difluoro-2-hydroxy-3-(2H-tetrazol-2-yl)propyl)pyridin-3-yl)oxy)methyl)nicotinonitrile], the MIC in experiment [2] is greater than 4 µg/mL.

The values above are taken from patent US8748461B2, “Metalloenzyme inhibitor compounds” (Viamet Pharmaceuticals, Inc., priority 2011, dated 2014).
